Experimental data as given in ChEMBL document CHEMBL1142367, “1H-Pyrazolo[3,4-g]hexahydro-isoquinolines as selective glucocorticoid receptor antagonists with high functional activity” (Bioorg Med Chem Lett, 2008).

Tests used:
Glucocorticoid receptor [1] = target: T1, Glucocorticoid receptor (Homo sapiens, UniProt P04150); assay: Displacement of [3H]dexamethasone from human recombinant GR
T1 sequence (P04150 whole entry): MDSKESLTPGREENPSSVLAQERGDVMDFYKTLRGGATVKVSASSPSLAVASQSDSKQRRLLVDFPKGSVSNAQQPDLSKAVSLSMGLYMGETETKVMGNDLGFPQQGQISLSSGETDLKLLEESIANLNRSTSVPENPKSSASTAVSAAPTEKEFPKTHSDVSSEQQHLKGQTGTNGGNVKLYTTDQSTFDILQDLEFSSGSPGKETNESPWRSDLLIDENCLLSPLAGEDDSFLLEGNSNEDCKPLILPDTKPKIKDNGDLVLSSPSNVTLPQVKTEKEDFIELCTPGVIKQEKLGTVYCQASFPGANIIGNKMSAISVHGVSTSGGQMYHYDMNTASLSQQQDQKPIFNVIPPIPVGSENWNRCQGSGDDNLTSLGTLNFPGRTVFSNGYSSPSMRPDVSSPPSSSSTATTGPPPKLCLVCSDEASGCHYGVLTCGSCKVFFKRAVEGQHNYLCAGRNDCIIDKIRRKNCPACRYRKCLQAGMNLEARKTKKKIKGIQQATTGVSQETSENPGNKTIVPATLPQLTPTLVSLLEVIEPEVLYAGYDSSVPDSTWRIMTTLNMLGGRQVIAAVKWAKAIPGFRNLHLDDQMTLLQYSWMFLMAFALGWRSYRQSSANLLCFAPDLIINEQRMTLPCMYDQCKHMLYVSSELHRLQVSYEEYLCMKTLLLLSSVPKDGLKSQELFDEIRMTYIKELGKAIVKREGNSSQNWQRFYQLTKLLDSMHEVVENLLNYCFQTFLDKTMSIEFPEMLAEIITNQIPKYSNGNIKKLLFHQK

Glucocorticoid receptor [2] = target: T1, Glucocorticoid receptor; assay: Antagonist activity at GR in SW1353/MMTV5 cells assessed as inhibition of dexamethasone-induced luciferase expression; assay type: functional, cell-based
[3] = Oral bioavailability in rat; assay type: ADME, organism-based; conditions: in vivo

Row | SMILES | Ki (Glucocorticoid receptor [1]) | Ki (Glucocorticoid receptor [2]) | bioavailability [3]
1 | COC[C@]12Cc3cnn(-c4ccc(F)cc4)c3C=C1CCN(S(=O)(=O)c1ccc(C)cc1)C2 | 0.5 nM | 5.7 nM | 
2 | C[C@]12Cc3cnn(-c4ccc(F)cc4)c3C=C1CCN(S(=O)(=O)c1ccc(F)cc1)C2 | 9 nM | 293 nM | 
3 | CN(C)C[C@]12Cc3cnn(-c4ccc(F)cc4)c3C=C1CCN(S(=O)(=O)c1ccc(F)cc1)C2 | 2.6 nM | 29 nM | 
4 | CN(C)C[C@]12Cc3cnn(-c4ccc(F)cc4)c3C=C1CCN(S(=O)(=O)c1ccc(C(C)(C)C)cc1)C2 | 1.2 nM | 6.9 nM | 0%
5 | CC(C)(C)c1ccc(S(=O)(=O)N2CCC3=Cc4c(cnn4-c4ccc(F)cc4)C[C@]3(Cc3ccccc3)C2)cc1 | 1.4 nM | 4.7 nM | 
6 | C[C@]12Cc3cnn(-c4ccc(F)cc4)c3C=C1CCN(S(=O)(=O)c1ccccc1F)C2 | 34 nM |  | 
7 | O=S(=O)(c1ccccc1)N1CCC2=Cc3c(cnn3-c3ccc(F)cc3)C[C@]2(CN2CCCC2)C1 | 1.5 nM | 4.9 nM | 
8 | CN(C)C[C@]12Cc3cnn(-c4ccc(F)cc4)c3C=C1CCN(S(=O)(=O)c1ccccc1)C2 | 1.1 nM | 10 nM | 
9 | CC(C)NC[C@]12Cc3cnn(-c4ccc(F)cc4)c3C=C1CCN(S(=O)(=O)c1ccc(C(C)(C)C)cc1)C2 | 2.1 nM | 17 nM | 5%
10 | CC(C)(C)c1ccc(S(=O)(=O)N2CCC3=Cc4c(cnn4-c4ccc(F)cc4)C[C@]3(CN3CCCCC3)C2)cc1 | 1.6 nM | 5.8 nM | 
11 | O=S(=O)(c1ccccc1)N1CCC2=Cc3c(cnn3-c3ccc(F)cc3)C[C@]2(CO)C1 | 10 nM |  | 
12 | COCCNC[C@]12Cc3cnn(-c4ccc(F)cc4)c3C=C1CCN(S(=O)(=O)c1ccc(C(C)(C)C)cc1)C2 | 1 nM | 3.1 nM | 0%
13 | CC(C)(C)c1ccc(S(=O)(=O)N2CCC3=Cc4c(cnn4-c4ccc(F)cc4)C[C@]3(COCCO)C2)cc1 | 0.8 nM | 8.7 nM | 
14 | COCCOC[C@]12Cc3cnn(-c4ccc(F)cc4)c3C=C1CCN(S(=O)(=O)c1ccccc1)C2 | 0.5 nM | 2.9 nM | 
15 | COCCOC[C@]12Cc3cnn(-c4ccc(F)cc4)c3C=C1CCN(S(=O)(=O)c1ccc(C)cc1)C2 |  |  | 8%
16 | CC(C)(C)c1ccc(S(=O)(=O)N2CCC3=Cc4c(cnn4-c4ccc(F)cc4)C[C@]3(CO)C2)cc1 | 1.6 nM | 47 nM | 
17 | CCCOC[C@]12Cc3cnn(-c4ccc(F)cc4)c3C=C1CCN(S(=O)(=O)c1ccc(C(F)(F)F)cc1)C2 | 0.9 nM | 9 nM | 
18 | O=S(=O)(c1ccc(F)cc1)N1CCC2=Cc3c(cnn3-c3ccc(F)cc3)C[C@]2(CO)C1 | 8.6 nM | 184 nM | 
19 | CCOC[C@]12Cc3cnn(-c4ccc(F)cc4)c3C=C1CCN(S(=O)(=O)c1ccc(C(C)(C)C)cc1)C2 | 0.8 nM | 1.9 nM | 
20 | C[C@]12Cc3cnn(-c4ccc(F)cc4)c3C=C1CCN(S(=O)(=O)c1ccc(N)cc1)C2 | 17 nM | > 1000 nM | 
21 | CC(C)(C)c1ccc(S(=O)(=O)N2CCC3=Cc4c(cnn4-c4ccc(F)cc4)C[C@]3(CNCCO)C2)cc1 | 2.8 nM | 28 nM | 
22 | Cc1ccc(S(=O)(=O)N2CCC3=Cc4c(cnn4-c4ccc(F)cc4)C[C@]3(C)C2)cc1 | 2.3 nM | 96 nM | 
23 | C=CCNC[C@]12Cc3cnn(-c4ccc(F)cc4)c3C=C1CCN(S(=O)(=O)c1ccc(C(C)(C)C)cc1)C2 | 0.9 nM | 11 nM | 
24 | CC(C)(C)c1ccc(S(=O)(=O)N2CCC3=Cc4c(cnn4-c4ccc(F)cc4)C[C@]3(CN3CCC3)C2)cc1 | 1.4 nM | 11 nM | 4%

Row | SMILES | Ki (Glucocorticoid receptor [1]) | Ki (Glucocorticoid receptor [2]) | bioavailability [3]
25 | CN1CCN(C[C@]23Cc4cnn(-c5ccc(F)cc5)c4C=C2CCN(S(=O)(=O)c2ccc(C(C)(C)C)cc2)C3)CC1 | 6.7 nM | 85 nM | 
26 | CCN(CC)C[C@]12Cc3cnn(-c4ccc(F)cc4)c3C=C1CCN(S(=O)(=O)c1ccc(C(C)(C)C)cc1)C2 | 1.7 nM | 14 nM | 
27 | Cc1ccccc1S(=O)(=O)N1CCC2=Cc3c(cnn3-c3ccc(F)cc3)C[C@]2(C)C1 | 22 nM |  | 
28 | CC(C)(C)c1ccc(S(=O)(=O)N2CCC3=Cc4c(cnn4-c4ccc(F)cc4)C[C@]3(COCCN3CCCCC3)C2)cc1 | 8.6 nM | 77 nM | 
29 | CCNC[C@]12Cc3cnn(-c4ccc(F)cc4)c3C=C1CCN(S(=O)(=O)c1ccc(C(C)(C)C)cc1)C2 | 2.4 nM | 16 nM | 0%
30 | COCCCOC[C@]12Cc3cnn(-c4ccc(F)cc4)c3C=C1CCN(S(=O)(=O)c1ccc(C(C)(C)C)cc1)C2 | 0.8 nM | 1.6 nM | 
31 | O=S(=O)(c1ccccc1)N1CCC2=Cc3c(cnn3-c3ccc(F)cc3)C[C@]2(CN2CCCCC2)C1 | 0.8 nM | 5.8 nM | 
32 | O=S(=O)(c1ccc(F)cc1)N1CCC2=Cc3c(cnn3-c3ccc(F)cc3)C[C@]2(CN2CCCC2)C1 | 1.6 nM | 8 nM | 
33 | C[C@]12Cc3cnn(-c4ccc(F)cc4)c3C=C1CCN(S(=O)(=O)c1ccc(C(F)(F)F)cc1)C2 | 3.4 nM | 78 nM | 
34 | CC(C)(C)c1ccc(S(=O)(=O)N2CCC3=Cc4c(cnn4-c4ccc(F)cc4)C[C@]3(COCCC#N)C2)cc1 | 0.8 nM | 5.1 nM | 2%
35 | COc1ccc(S(=O)(=O)N2CCC3=Cc4c(cnn4-c4ccc(F)cc4)C[C@]3(C)C2)cc1 | 3.7 nM | 178 nM | 
36 | CC(C)(C)c1ccc(S(=O)(=O)N2CCC3=Cc4c(cnn4-c4ccc(F)cc4)C[C@]3(CN3CCCC3)C2)cc1 | 1.1 nM | 3.4 nM | 2%
37 | CN(C)CCNC[C@]12Cc3cnn(-c4ccc(F)cc4)c3C=C1CCN(S(=O)(=O)c1ccc(C(C)(C)C)cc1)C2 | 3.8 nM | 60 nM | 
38 | Fc1ccc(CC23Cc4cnn(-c5ccc(F)cc5)c4C=C2CCN(Cc2cccnc2)C3)cc1 (racemic) | 22 nM | > 1000 nM | 
39 | O=C(c1ccccc1)N1CCC2=Cc3c(cnn3-c3ccc(F)cc3)CC2(Cc2ccc(F)cc2)C1 (racemic) | > 1000 nM |  | 
40 | CC(C)(C)c1ccc(S(=O)(=O)N2CCC3=Cc4c(cnn4-c4ccc(F)cc4)CC3(Cc3ccc(F)cc3)C2)cc1 (racemic) | 1.3 nM | 14 nM | 
41 | O=S(=O)(c1ccccc1)N1CCC2=Cc3c(cnn3-c3ccc(F)cc3)CC2(Cc2ccc(F)cc2)C1 (racemic) | 2.2 nM | 36 nM | 
42 | O=S(=O)(N1CCOCC1)N1CCC2=Cc3c(cnn3-c3ccc(F)cc3)CC2(Cc2ccc(F)cc2)C1 (racemic) | 26 nM | > 1000 nM | 
43 | O=S(=O)(c1ccc(F)cc1)N1CCC2=Cc3c(cnn3-c3ccc(F)cc3)CC2(Cc2ccc(F)cc2)C1 (racemic) | 1.4 nM | 26 nM | 
44 | O=S(=O)(c1ccc(N2CCOCC2)cc1)N1CCC2=Cc3c(cnn3-c3ccc(F)cc3)CC2(Cc2ccc(F)cc2)C1 (racemic) | 1.3 nM | 11 nM | 
45 | CS(=O)(=O)N1CCC2=Cc3c(cnn3-c3ccc(F)cc3)CC2(Cc2ccc(F)cc2)C1 (racemic) | 13 nM | > 1000 nM | 
46 | Cc1ccc(S(=O)(=O)N2CCC3=Cc4c(cnn4-c4ccc(F)cc4)CC3(Cc3ccc(F)cc3)C2)cc1 (racemic) | 1.5 nM | 17 nM | 
47 | CCOC[C@]12Cc3cnn(-c4ccc(F)cc4)c3C=C1CCN(S(=O)(=O)c1ccc(C(F)(F)F)cc1)C2 [CORT 108297] | 0.9 nM | 6.8 nM | 
